Test results as given in patent US20240376097A1, “BCL-2 Inhibitor” (BeiGene Ltd., priority 2020, published 2024).

What was measured:
[1] = molecular target: Recombinant human Bcl-2 protein (Homo sapiens (Human), UniProt P10415); experiment: Bcl-2 TR-FRET Assay; assay type: binding; settings: Bcl-2 wild type, TR-FRET; read-out: Biochemical assay (IC50, nM) Bcl-2 WT
How it was run: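 TR-FRET read (337 nm excitation, 520/490 nm emission) after 1 h with 0.5 nM FITC-labeled Bak peptide and Tb-cryptate anti-6His antibody. Bcl-2 at 0.05 nM had been pre-incubated 0.5 h with compound. IC50 fitted by four-parameter logistic equation.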

[2] = molecular target: recombinant human Bcl-2-G101V protein (Homo sapiens (Human), UniProt P10415, G101V); experiment: Bcl-2-G101V TR-FRET Assay; assay type: binding; settings: Bcl-2 G101V mutant, TR-FRET; read-out: Biochemical assay (IC50, nM) Bcl-2 G101V
How it was run: (§1)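 Ex337/em490 & 520 nm TR-FRET; % inhibition of Bcl-2-G101V–ligand interaction from 490:520 ratio vs. increasing compound conc.; IC50 by 4-parameter logistic fit.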

[3] = test system: recombinant human Bcl-2-G101V protein; experiment: Bcl-2-G101V TR-FRET Assay; assay type: binding; settings: ratio of biochemical IC50 Bcl-2 G101V / Bcl-2 WT
How it was run: as §1

[4] = test system: RS4;11 (BCL-2 dependent acute lymphoblastic leukemia cell line); experiment: RS4;11 Cell Proliferation Assay; assay type: cell-based; settings: Homo sapiens, RS4-11, RS4;11 cells, read-out: Cellular proliferation assay (IC50, nM) RS4
How it was run: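 Viability measured via CellTiter-Glo luminescence after a 48 h, 37 °C exposure to compounds (10 points, highest 1 μM). Seeding was 50,000 RS4;11 cells per well in 10% FBS RPMI-1640; IC50 given as mean.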

[5] = test system: BCL-2 G101V knock-in cell line H96 (derive from RS4;11); experiment: Bcl 2-G101V Knock-In RS4;11 Cell Proliferation Assay; assay type: cell-based; settings: Homo sapiens, RS4;11 Bcl-2 G101V knock-in clone H96, 48 hrs, CellTiter-GLO, read-out: Cellular proliferation assay (IC50, nM) RS4
How it was run: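 CellTiter-Glo luminescence after 48 h, 37 °C compound treatment (10 concentrations, maximum 1 μM or 10 μM) gave mean IC50 values. Cells were 50,000 per well of H96, a BCL2-G101V knock-in single clone derived from RS4;11 by Cas9 editing.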

In the case of `[2H]C([2H])([2H])Oc1ccc(CN2CCN(C3CC4(CCN(c5ccc(C(=O)NS(=O)(=O)c6ccc(NC[C@H]7CC[C@](C)(O)CC7)c([N+](=O)[O-])c6)c(Oc6cnc7[nH]cc(Cl)c7c6)c5)CC4)C3)[C@H](c3ccccc3C(C)C)C2)cc1OC([2H])([2H])[2H]` [Example 250, 4-(2-((R)-4-(3,4-bis(methoxy-d3)benzyl)-2-(2-isopropylphenyl)piperazin-1-yl)-7-azaspiro[3.5]nonan-7-yl)-2-((3-chloro-1H-pyrrolo[2,3-b]pyridin-5-yl)oxy)-N-((4-((((1r,4r)-4-hydroxy-4-methylcyclohexyl)methyl)amino)-3-nitrophenyl)sulfonyl)benzamide], the IC50 [1] is reported as 0.09 nM, the IC50 [2] is reported as 0.52 nM and the “Ratio of Bcl-2 G101V/WT” value [3] is reported as 5.7. For the same compound, the IC50 [4] was 0.16 nM and the IC50 [5] was 1.06 nM.
For `CC(C)c1ccccc1C1CN(Cc2cccc3ccoc23)CCN1C1CC2(CCN(c3ccc(C(=O)NS(=O)(=O)c4ccc(NC[C@H]5CC[C@](C)(O)CC5)c([N+](=O)[O-])c4)c(Oc4cnc5[nH]ccc5c4)c3)CC2)C1` (stereo partly drawn) [Example 137, 2-((1H-pyrrolo[2,3-b]pyridin-5-yl)oxy)-4-(2-(4-(benzofuran-7-ylmethyl)-2-(2-isopropylphenyl)piperazin-1-yl)-7-azaspiro[3.5]nonan-7-yl)-N-((4-((((1r,4r)-4-hydroxy-4-methylcyclohexyl)methyl)amino)-3-nitrophenyl)sulfonyl)benzamide], the IC50 [1] was 0.62 nM, the IC50 [2] was 3.2 nM and the “Ratio of Bcl-2 G101V/WT” value [3] was 5.1. It also gave an IC50 [4] of 0.89 nM and an IC50 [5] of 9.6 nM.
In the case of `CCc1ccc(CN2CCN(C3CC4(CCN(c5ccc(C(=O)NS(=O)(=O)c6ccc(NC[C@H]7CC[C@](C)(O)CC7)c([N+](=O)[O-])c6)c(Oc6cnc7[nH]ccc7c6)c5)CC4)C3)[C@H](c3ccccc3C(C)C)C2)cc1OC` [Example 265, 2-((1H-pyrrolo[2,5-b]pyridin-5-yl)oxy)-4-(2-((R)-4-(4-ethyl-3-methoxybenzyl)-2-(2-isopropylphenyl)piperazin-1-yl)-7-azaspiro[3.5]nonan-7-yl)-N-((4-((((1r,4r)-4-hydroxy-4-methylcyclohexyl)methyl)amino)-3-nitrophenyl)sulfonyl)benzamide], the IC50 [1] is reported as 0.66 nM, the IC50 [2] is reported as 1.9 nM and the “Ratio of Bcl-2 G101V/WT” value [3] is reported as 3. The IC50 [4] was 0.15 nM and the IC50 [5] was 0.65 nM.
`CCc1cc(CN2CCN(C3CC4(CCN(c5ccc(C(=O)NS(=O)(=O)c6ccc(NC[C@H]7CC[C@](C)(O)CC7)c([N+](=O)[O-])c6)c(Oc6cnc7[nH]ccc7c6)c5)CC4)C3)C(c3ccccc3C(C)C)C2)ccc1OC` (stereo partly drawn) [Example 116, 2-((1H-pyrrolo[2,3-b]pyridin-5-yl)oxy)-4-(2-(4-(3-ethyl-4-methoxybenzyl)-2-(2-isopropylphenyl)piperazin-1-yl)-7-azaspiro[3.5]nonan-7-yl)-N-((4-((((1r,4r)-4-hydroxy-4-methylcyclohexyl)methyl)amino)-3-nitrophenyl)sulfonyl)benzamide] was tested, and the IC50 [1] was 0.42 nM, the IC50 [2] was 2 nM and the “Ratio of Bcl-2 G101V/WT” value [3] was 4.7. For the same compound, the IC50 [4] was 0.58 nM and the IC50 [5] was 4.76 nM.
`COc1cccc(CN2CCN(C3CC4(CCN(c5ccc(C(=O)NS(=O)(=O)c6ccc(NC[C@H]7CC[C@](C)(O)CC7)c([N+](=O)[O-])c6)c(Oc6cnc7[nH]ccc7c6)c5)CC4)C3)C(c3ccccc3C(C)C)C2)c1Cl` (stereo partly drawn) [Example 120, 2-((1H-pyrrolo[2,3-b]pyridin-5-yl)oxy)-4-(2-(4-(2-chloro-3-methoxybenzyl)-2-(2-isopropylphenyl)piperazin-1-yl)-7-azaspiro[3.5]nonan-7-yl)-N-((4-((((1r,4r)-4-hydroxy-4-methylcyclohexyl)methyl)amino)-3-nitrophenyl)sulfonyl)benzamide] was tested, and the IC50 [1] was 0.42 nM, the IC50 [2] was 3.4 nM and the “Ratio of Bcl-2 G101V/WT” value [3] was 8. It also gave an IC50 [4] of 1.25 nM and an IC50 [5] of 12.7 nM.
For `COc1cc(CN2CCN(C3CC4(C3)CN(c3ccc(C(=O)NS(=O)(=O)c5ccc(NC[C@H]6CC[C@](C)(O)CC6)c([N+](=O)[O-])c5)c(Oc5cnc6[nH]ccc6c5)c3)C4)[C@H](c3ccccc3C(C)C)C2)cc2occc12` [Example 331, 2-((1H-pyrrolo[2,3-b]pyridin-5-yl)oxy)-N-((4-((((1r,4r)-4-hydroxy-4-methylcyclohexyl)methyl)amino)-3-nitrophenyl)sulfonyl)-4-(6-((R)-2-(2-isopropylphenyl)-4-((4-methoxybenzofuran-6-yl)methyl)piperazin-1-yl)-2-azaspiro[3.3]heptan-2-yl)benzamide], the IC50 [1] was 0.29 nM, the IC50 [2] was 0.62 nM and the “Ratio of Bcl-2 G101V/WT” value [3] was 2.1. The IC50 [4] was 0.16 nM and the IC50 [5] was 0.69 nM.
In the case of `COc1cc(CN2CCN(C3CC4(CCN(c5ccc(C(=O)NS(=O)(=O)c6ccc(NC[C@H]7CC[C@](C)(O)CC7)c([N+](=O)[O-])c6)c(Oc6cnc7[nH]cc(Cl)c7c6)c5)CC4)C3)[C@H](c3ccccc3C(C)C)C2)ccc1C1CC1` [Example 252, 2-((3-chloro-1H-pyrrolo[2,3-b]pyridin-5-yl)oxy)-4-(2-((R)-4-(4-cyclopropyl-3-methoxybenzyl)-2-(2-isopropylphenyl)piperazin-1-yl)-7-azaspiro[3.5]nonan-7-yl)-N-((4-((((1r,4r)-4-hydroxy-4-methylcyclohexyl)methyl)amino)-3-nitrophenyl)sulfonyl)benzamide], the IC50 [1] is reported as 1.2 nM, the IC50 [2] is reported as 3.5 nM and the “Ratio of Bcl-2 G101V/WT” value [3] is reported as 2.8. The IC50 [4] was 0.26 nM and the IC50 [5] was 2.6 nM.
For `COc1cc(CN2CCN(C3CC4(C3)CN(c3ccc(C(=O)NS(=O)(=O)c5ccc(NC[C@H]6CC[C@](C)(O)CC6)c([N+](=O)[O-])c5)c(Oc5cnc6[nH]ccc6c5)c3)C4)[C@H](c3ccccc3C(C)C)C2)cc2c1OCCC2(C)C` [Example 334], the IC50 [1] was 0.12 nM, the IC50 [2] was 0.33 nM and the “Ratio of Bcl-2 G101V/WT” value [3] was 2.8. For the same compound, the IC50 [4] was 0.17 nM and the IC50 [5] was 0.65 nM.
In the case of `C#Cc1ccc(CN2CCN(C3CC4(CCN(c5ccc(C(=O)NS(=O)(=O)c6ccc(NC[C@H]7CC[C@](C)(O)CC7)c([N+](=O)[O-])c6)c(Oc6cnc7[nH]ccc7c6)c5)CC4)C3)C(c3ccccc3C(C)C)C2)cc1` (stereo partly drawn) [Example 142, 2-((1H-pyrrolo[2,3-b]pyridin-5-yl)oxy)-4-(2-(4-(4-ethynylbenzyl)-2-(2-isopropylphenyl)piperazin-1-yl)-7-azaspiro[3.5]nonan-7-yl)-N-((4-((((1r,4r)-4-hydroxy-4-methylcyclohexyl)methyl)amino)-3-nitrophenyl)sulfonyl)benzamide], the IC50 [1] is reported as 0.56 nM, the IC50 [2] is reported as 3 nM and the “Ratio of Bcl-2 G101V/WT” value [3] is reported as 5.3. The IC50 [4] was 0.795 nM and the IC50 [5] was 6.22 nM.
With `COc1cc(CN2CCN(C3CC4(C3)CN(c3ccc(C(=O)NS(=O)(=O)c5ccc(NC[C@H]6CC[C@](C)(O)CC6)c([N+](=O)[O-])c5)c(Oc5cnc6[nH]ccc6c5)c3)C4)[C@H](c3ccccc3C(C)C)C2)ccc1C1CCC1` [Example 342, 2-((1H-pyrrolo[2,5-b]pyridin-5-yl)oxy)-4-(6-((R)-4-(4-cyclobutyl-3-methoxybenzyl)-2-(2-isopropylphenyl)piperazin-1-yl)-2-azaspiro[3.3]heptan-2-yl)-N-((4-((((1r,4r)-4-hydroxy-4-methylcyclohexyl)methyl)amino)-3-nitrophenyl)sulfonyl)benzamide] the IC50 [1] was 0.97 nM, the IC50 [2] was 3.3 nM and the “Ratio of Bcl-2 G101V/WT” value [3] was 2.9. It also gave an IC50 [4] of 0.28 nM and an IC50 [5] of 2 nM.
For `COc1cc(CN2CCN(C3CC4(C3)CN(c3ccc(C(=O)NS(=O)(=O)c5ccc(NC[C@H]6CC[C@](C)(O)CC6)c([N+](=O)[O-])c5)c(Oc5cnc6[nH]ccc6c5)c3)C4)[C@H](c3ccccc3C(C)C)C2)cc2c1OC(C)(C)C=C2` [Example 329, 2-((1H-pyrrolo[2,3-b]pyridin-5-yl)oxy)-N-((4-((((1r,4r)-4-hydroxy-4-methylcyclohexyl)methyl)amino)-3-nitrophenyl)sulfonyl)-4-(6-((R)-2-(2-isopropylphenyl)-4-((8-methoxy-2,2-dimethyl-2H-chromen-6-yl)methyl)piperazin-1-yl)-2-azaspiro[3.3]heptan-2-yl) benzamide], the IC50 [1] was 0.15 nM, the IC50 [2] was 0.47 nM and the “Ratio of Bcl-2 G101V/WT” value [3] was 3.1. The IC50 [4] was 0.25 nM and the IC50 [5] was 1.3 nM.
For `COc1cc(CN2CCN(C3CC4(C3)CN(c3ccc(C(=O)NS(=O)(=O)c5ccc(NC[C@H]6CC[C@](C)(O)CC6)c([N+](=O)[O-])c5)c(Oc5cnc6[nH]ccc6c5)c3)C4)[C@H](c3ccccc3C(C)C)C2)cc(C)c1OC` [Example 234, 2-((1H-pyrrolo[2,3-b]pyridin-5-yl)oxy)-4-(6-((R)-4-(3,4-dimethoxy-5-methylbenzyl)-2-(2-isopropylphenyl)piperazin-1-yl)-2-azaspiro[3.3]heptan-2-yl)-N-((4-((((1r,4r)-4-hydroxy-4-methylcyclohexyl)methyl)amino)-3-nitrophenyl)sulfonyl)benzamide], the IC50 [1] was 0.087 nM, the IC50 [2] was 0.32 nM and the “Ratio of Bcl-2 G101V/WT” value [3] was 3.7. The IC50 [4] was 0.09 nM and the IC50 [5] was 0.35 nM.
